From ChEMBL document CHEMBL3301458, “MMV Malaria Box hERG screening”
The source made the active and inactive calls. The rule behind the calls is not given here.

Columns and labels:
hERG (Kv11.1, KCNH2) [1] = biological target: T1, hERG (Kv11.1, KCNH2) (Homo sapiens, UniProt Q12809); test: in vitro
Description: MMV: Malaria Box compounds were tested for inhibition of the human ether a go-go related gene (hERG), Kv11.1 channel, using IonWorks 384-well patch clamp electrophysiology at 1.1uM (3 independent assay plates up to 12 cells per concentration).

hERG (Kv11.1, KCNH2) [2] = biological target: T1, hERG (Kv11.1, KCNH2); test: in vitro; remark: listed apart in the source
Description: MMV: Malaria Box compounds were tested for inhibition of the human ether a go-go related gene (hERG), Kv11.1 channel, using IonWorks 384-well patch clamp electrophysiology at 11.1uM (3 independent assay plates up to 12 cells per concentration).

T1 sequence (Q12809 whole entry): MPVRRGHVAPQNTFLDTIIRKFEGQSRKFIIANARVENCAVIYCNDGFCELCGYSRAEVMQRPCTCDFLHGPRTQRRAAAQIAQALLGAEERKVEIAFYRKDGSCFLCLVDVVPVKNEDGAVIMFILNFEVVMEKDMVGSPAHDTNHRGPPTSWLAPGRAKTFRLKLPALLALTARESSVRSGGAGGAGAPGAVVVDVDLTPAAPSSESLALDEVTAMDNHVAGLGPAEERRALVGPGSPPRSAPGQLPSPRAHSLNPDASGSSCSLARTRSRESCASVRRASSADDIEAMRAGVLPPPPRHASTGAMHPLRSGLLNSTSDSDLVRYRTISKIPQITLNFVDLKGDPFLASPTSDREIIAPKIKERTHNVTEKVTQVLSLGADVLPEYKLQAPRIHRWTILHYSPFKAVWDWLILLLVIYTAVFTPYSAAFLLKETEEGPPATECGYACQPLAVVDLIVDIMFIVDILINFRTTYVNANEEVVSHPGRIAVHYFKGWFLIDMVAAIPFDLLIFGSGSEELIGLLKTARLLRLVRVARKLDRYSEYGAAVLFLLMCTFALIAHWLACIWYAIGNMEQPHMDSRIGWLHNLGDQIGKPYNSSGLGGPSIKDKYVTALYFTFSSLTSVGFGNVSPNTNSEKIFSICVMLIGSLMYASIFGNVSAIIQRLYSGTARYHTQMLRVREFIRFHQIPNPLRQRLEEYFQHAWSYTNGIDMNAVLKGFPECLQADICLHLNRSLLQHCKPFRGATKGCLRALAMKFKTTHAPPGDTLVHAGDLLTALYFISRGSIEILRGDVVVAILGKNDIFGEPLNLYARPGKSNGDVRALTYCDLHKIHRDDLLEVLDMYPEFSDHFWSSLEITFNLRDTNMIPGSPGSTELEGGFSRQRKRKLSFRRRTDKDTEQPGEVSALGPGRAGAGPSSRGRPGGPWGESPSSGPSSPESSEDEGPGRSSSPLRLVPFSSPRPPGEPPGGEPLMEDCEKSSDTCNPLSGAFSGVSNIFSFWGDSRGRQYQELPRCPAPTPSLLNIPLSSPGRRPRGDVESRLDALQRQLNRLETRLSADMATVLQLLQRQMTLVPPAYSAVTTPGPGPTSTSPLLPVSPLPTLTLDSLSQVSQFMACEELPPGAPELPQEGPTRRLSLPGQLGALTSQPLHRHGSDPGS

| Structure (SMILES) | inhibition at 1.1 µM (hERG (Kv11.1, KCNH2) [1]) | inhibition at 11.1 µM (hERG (Kv11.1, KCNH2) [2]) |
| --- | --- | --- |
| O=C(Nc1ccc(Cl)c(Cl)c1)Nc1ccc(Cl)c(Cl)c1 | 15% | 103% (active) |
| COc1ccc(-c2cc3c(nn2)-c2ccccc2C3=O)cc1 | -9% | -7% (inactive) |
| O=C(Nc1ccccc1O)c1ccc(Oc2cccc(C(=O)Nc3ccccc3O)c2)cc1 | -2% | 5% (inactive) |
| Cc1ccc(-c2cc3c(nn2)-c2ccccc2C3=O)cc1 | 14% | 50% (active) |
| O=C1c2ccccc2-c2nnc(-c3ccc(Br)cc3)cc21 | -3% | 2% (inactive) |
| N=c1n(CCN2CCCCC2)c2ccccc2n1CC(O)c1cccc(Br)c1 (centres undefined) | 18% | 73% (active) |
| COc1cccc(O)c1CN1CCC2(CCCN(Cc3ccc(F)cc3)C2)C1 (centres undefined) | 0% | 86% (active) |
| Cc1ccc(-c2cc(C(=O)Nc3ccc(S(=O)(=O)N4CCCCC4)cc3)[nH]n2)c(O)c1 | -1% | 8% (inactive) |
| CCOC(=O)C1=C(C)N=c2sc(=Cc3cc(Cl)ccc3O)c(=O)n2C1c1ccc(OC)cc1 (centres undefined) | 2% | 2% (inactive) |
| COc1ccc(-c2nc(NC(=O)CS(=O)(=O)c3ccc(F)cc3)sc2C)cc1 | 7% | 69% (active) |
| COc1cc(C(=O)Nc2ccc(-c3nc4ccccc4[nH]3)cc2)cc(OC)c1OC | -12% | 17% (inactive) |
| Cc1nc2ccccc2c(O)c1CC=C(Cl)Cl | -1% | -2% (inactive) |
| FC(F)(F)c1ccc(Nc2nnnc3ccccc23)cc1 | -4% | -2% (inactive) |
| c1ccc(-c2ccc(-c3nc4ccccc4[nH]3)cc2)cc1 | -2% | -8% (inactive) |
| CCC(C)NCC(O)(c1ccc(Cl)cc1)c1ccc(Cl)cc1 (centres undefined) | 24% | 89% (active) |
| Cc1ccc(N2C(=O)C3C(C2=O)C2(c4ccccc4)C(=O)C3(c3ccccc3)C(c3ccccc3)=C2c2ccccc2)cc1 (centres undefined) | 10% | -3% (inactive) |
| COc1ccc(CN2CCCC(C(=O)c3ccc(C(F)(F)F)cc3)C2)c(O)c1 (centres undefined) | 58% | 100% |
| COc1cccc(NC(=O)[C@H](C(C)C)n2c(=O)[nH]c3ccccc3c2=O)c1 | 2% | 17% (inactive) |
| CCOC(=O)c1cn(CC)c2cc(N(C)CCc3ccc(OC)c(OC)c3)c(F)cc2c1=O | 3% | 34% |

| Structure (SMILES) | inhibition at 1.1 µM (hERG (Kv11.1, KCNH2) [1]) | inhibition at 11.1 µM (hERG (Kv11.1, KCNH2) [2]) |
| --- | --- | --- |
| COc1ccc2nc(N)nc(C)c2c1 | 10% | 4% (inactive) |
| CCC(c1ccccc1)c1nn2c(-c3cccs3)nnc2s1 (centres undefined) | 8% | 42% |
| O=C(CCl)NCCOc1ccc(Cl)cc1Cl | 1% | 62% (active) |
| CC(Oc1ccc(NC(=O)c2cccs2)cc1)C(=O)c1ccc(Cl)cc1 (centres undefined) | -4% | 55% (active) |
| COc1ccc(CCN2CCC(CN(C)Cc3cnn(-c4ccccc4)c3)CC2)cc1 | 41% | 99% (active) |
| COc1ccc(C(=O)NC(c2ccc(Cl)cc2Cl)c2cc(Cl)c3cccnc3c2O)cc1 (centres undefined) | -3% | -12% (inactive) |
| CCCCNc1nc(NC(C)(C)C)nc(NC(C)(C)C)n1 | -1% | 1% (inactive) |
| COc1ccc(CNC(=O)c2cc3c(=O)n4ccccc4nc3n(CCc3ccccc3)c2=N)cc1 | 10% | 45% |
| O=C(NC1CCCC1)c1ccc(N2CCC(NCc3cccc(C(F)(F)F)c3)CC2)cc1 | 76% | 101% |
| CC(C)=CCN1CCC(C(=O)Nc2ccc(-c3nc4ccccc4[nH]3)cc2)CC1 | 0% | 29% |
| Cc1cc(Nc2ccc(C)c(Cl)c2)n2nc(C(F)(F)F)nc2n1 | 23% | 72% (active) |
| Nc1ccc(-c2nc3cc(Cc4ccc5[nH]c(-c6ccc(N)cc6)nc5c4)ccc3[nH]2)cc1 | 12% | 21% (inactive) |
| CC(=O)c1sc(NC(=O)Nc2ccc(C)cc2C)nc1C | 7% | 38% |
| Cn1c(=O)n(C)c2cc(CNCCNc3ccnc4cc(Cl)ccc34)ccc21 | 16% | 60% (active) |
| COc1ccc(CNC2CCN(c3ccc(NC(=O)c4cccc(Cl)c4)cc3)CC2)cc1OC | 84% | 102% |
| N=c1c2ccccc2nnn1-c1cccc(C(F)(F)F)c1 | -3% | 11% (inactive) |
| Cc1ccc(OCCCCCCNCCO)c(C)c1 | -6% | 21% (inactive) |
| FC(F)(F)c1cccc(CNC2CCN(CCc3ccccc3)CC2)c1 | 4% | 97% (active) |
